For eight molecules, melting point and IC50 results are on record in patent US20050171102A1, “Semicarbazide derivatives for combating thromboembolic diseases” (priority 2002, published 2005).

Counter-ions that a name gives are not always drawn.

One data set concerns the target FXa (Homo sapiens, UniProt P00742). The data set can be described thus: Factor Xa inhibition (FXa-IC50), Table 3 'Affinity to Receptors'.
Another data set deals with TF/FVIIa (Homo sapiens, UniProt P08709). The data set can be described thus: TF/FVIIa inhibition (TF/FVIIa-IC50), Table 3 'Affinity to Receptors'.
Chain of TF/FVIIa (P08709 213-466 limits assumed): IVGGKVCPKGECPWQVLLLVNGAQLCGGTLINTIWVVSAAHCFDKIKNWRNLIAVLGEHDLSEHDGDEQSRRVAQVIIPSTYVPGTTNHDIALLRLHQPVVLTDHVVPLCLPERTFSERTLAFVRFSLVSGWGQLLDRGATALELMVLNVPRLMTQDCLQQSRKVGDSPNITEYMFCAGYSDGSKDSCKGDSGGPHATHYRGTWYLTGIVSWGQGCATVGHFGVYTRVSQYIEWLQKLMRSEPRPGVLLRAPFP
Chain of TF/FVIIa (P08709 61-212 limits assumed): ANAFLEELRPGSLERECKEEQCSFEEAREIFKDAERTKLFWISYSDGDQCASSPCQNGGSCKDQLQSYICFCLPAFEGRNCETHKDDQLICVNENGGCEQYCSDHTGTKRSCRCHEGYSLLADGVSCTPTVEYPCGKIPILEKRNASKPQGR
Chain of TF/FVIIa (P13726 33-295 partner): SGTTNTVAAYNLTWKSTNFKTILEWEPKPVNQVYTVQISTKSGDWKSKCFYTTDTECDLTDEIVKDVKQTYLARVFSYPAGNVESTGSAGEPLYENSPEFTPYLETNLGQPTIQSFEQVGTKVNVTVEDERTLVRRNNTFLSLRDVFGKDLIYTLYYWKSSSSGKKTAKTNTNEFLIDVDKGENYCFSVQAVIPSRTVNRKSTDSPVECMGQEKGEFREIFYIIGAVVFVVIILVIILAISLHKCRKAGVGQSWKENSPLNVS

Chain of FXa (P00742 235-488 limits assumed): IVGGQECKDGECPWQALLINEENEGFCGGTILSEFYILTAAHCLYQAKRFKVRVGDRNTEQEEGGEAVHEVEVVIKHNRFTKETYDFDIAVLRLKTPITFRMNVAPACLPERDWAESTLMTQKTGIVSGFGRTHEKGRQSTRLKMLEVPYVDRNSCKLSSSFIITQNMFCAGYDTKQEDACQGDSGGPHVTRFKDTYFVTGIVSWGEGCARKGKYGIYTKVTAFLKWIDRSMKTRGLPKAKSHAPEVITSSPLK
Chain of FXa (P00742 41-179 limits assumed): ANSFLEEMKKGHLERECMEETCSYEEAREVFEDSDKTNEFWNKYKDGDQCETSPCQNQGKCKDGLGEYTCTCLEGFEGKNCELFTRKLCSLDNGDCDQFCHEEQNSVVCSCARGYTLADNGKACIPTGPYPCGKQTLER
Description for FXa: The inhibition of factor Xa by the compounds according to the invention and the measurement of the anticoagulant and antithrombotic activity can be determined by conventional in-vitro or in-vivo methods.

`Cc1cc(NC(=O)NN(c2ccccc2)c2cccc(CN)c2)ccc1N1CCCCC1=O.Cl`: the melting point – broadly, the temperature of the solid-liquid transition – is 172 to 173 °C.
Consider `Cc1cc(NC(=O)NN(c2ccccc2)c2cccc(C#N)c2)ccc1N1CCOCC1` [5′, 1-(3-cyanophenyl)-4-[3-methyl-4-(morpholin-4-yl)phenyl]-1-phenylsemicarbazide], for which the melting point was 115 to 116 °C.
Same read-out and setting: the value for `N#Cc1cccc(NN(C(=O)Nc2ccc(N3CCCCC3=O)cc2)c2ccccc2)c1` [5″, 1-(3-cyanophenyl)-4-[4-(2-oxopiperidin-1-yl)phenyl]-2-phenylsemicarbazide] was 239 to 241 °C.
With `N=C(N)c1cccc(NN(C(=O)Nc2ccc(N3CCOCC3=O)c(Cl)c2)c2ccccc2)c1` [Compound 4.AA, 1-(3-amidinophenyl)-4-[3-chloro-4-(3-oxomorpholin-4-yl)phenyl]-2-phenylsemicarbazide, hydrochloride], the IC50 – broadly, the concentration that inhibits the measured activity by half – on FXa was determined as 20 nM; on TF/FVIIa, 27 nM.
Consider `Cc1cc(NC(=O)NN(c2ccccc2)c2cccc(C#N)c2)ccc1N1CCCCC1=O` [Compound 6, 1-(3-cyanophenyl)-4-[3-methyl-4-(2-oxopiperidin-1-yl)phenyl]-1-phenylsemicarbazide], for which the melting point lay in the range of 161 to 162 °C.
Take `Cc1cc(NC(=O)NN(c2ccccc2)c2cccc(C(=N)N)c2)ccc1N1CCCCC1=O.Cl` [Compound 10, 1-(3-amidinophenyl)-4-[3-methyl-4-(2-oxopiperidin-1-yl)phenyl]-1-phenylsemicarbazide, hydrochloride]: the melting point is more than 300 °C. The IC50 at FXa came out at 16 nM. The same molecule returned an IC50 against TF/FVIIa of 9.8 nM.
`Cc1cc(NC(=O)N(Nc2cccc(C(=N)N)c2)c2ccccc2)ccc1N1CCCCC1=O.Cl` [Compound 11, 1-(3-amidinophenyl)-4-[3-methyl-4-(2-oxopiperidin-1-yl)phenyl]-2-phenylsemicarbazide, hydrochloride] gave a melting point of more than 300 °C. Also, half-maximal inhibition on FXa (IC50) was put at 8.6 nM. The molecule further had an IC50 against TF/FVIIa of 5.1 nM.
The matching figures for `Cc1cc(NC(=O)N(Nc2cccc(CN)c2)c2ccccc2)ccc1N1CCCCC1=O.Cl` [Compound 13, 1-(3-aminomethylphenyl)-4-[3-methyl-4-(2-oxopiperidin-1-yl)phenyl]-2-phenylsemicarbazide, hydrochloride]: 95 to 97 °C, 130 nM and 170 nM.
